Reference: patent US20210189342A1, “COMPOSITIONS AND METHODS FOR MODULATING MONOCYTE AND MACROPHAGE INFLAMMATORY PHENOTYPES AND IMMUNOTHERAPY USES THEREOF” (Verseau Therapeutics, Inc., priority 2018, published 2021)
pIC50: −log10 of the molar value.

What follows are substances tested on CD207 (assay: siRNA dose response, CD207 mRNA knockdown, Dual-Glo Luciferase Assay). Conditions: Hepal-6 + reporter plasmid, 24 hr.
Type: cell-based, human
Experimental: (§1) Dose response curves for siRNAs were generated in vitro using a variety of cell lines according to Table 4.
(§2) Briefly, cells were seeded in 96-well plates and reverse transfected with siRNA, Lipofectamine® 2000 (0.5 uL/well; ThermoFisher), and, in some cases, a reporter plasmid (50 ng/well). The reporter plasmid (psiCHECK™-2, Promega) encoded both firefly luciferase and the gene of interest fused to renilla luciferase; silencing of the gene of interest results in proportional silencing of renilla luciferase but leaves firefly luciferase unaffected as an internal control.
(§3) After 24 hr incubation at 37° C., mRNA knockdown was measured using an endpoint assay. For targets without a reporter plasmid, a branched DNA (bDNA) assay was performed according to the manufacturer's instructions (QuantiGene® Singleplex Gene Expression Assay, ThermoFisher) to measure both the target gene and GAPDH (housekeeping gene) mRNA. Data are plotted as siRNA concentration (nM) vs. remaining mRNA (ratio of target gene to GAPDH, normalized to mock siRNA-transfected cells). For targets with a reporter plasmid, a Dual-Glo® Luciferase Assay was performed according to the manufacturer's instructions (Promega) to measure firefly and renilla luciferase expression. Data are plotted as siRNA concentration (nM) vs. remaining mRNA (ratio of renilla to firefly luminescence, normalized to mock siRNA-transfected cells).
(§4) For all dose response curves, a 4-parameter logistic model was applied to determine the IC50 of each siRNA sequence (Table 5 and FIG. 2). Data shown in Table 5 and FIG. 2 represent the mean of quadruplicates, +/−standard deviation.

Substance	pIC50
XD-09249: siRNA targeting CD207 (sense 5'-uauAGuGccGAGcaGuucudTsdT-3'; antisense 5'-AGAACUGCUCGGcACuAuAdTsdT-3'; RNA with 2'-O-methyl and phosphorothioate modifications, case key not given here, as printed in the source, key not given here)	9.82
XD-09245: siRNA targeting CD207 (sense 5'-gcGuucAGAuccAgAuGGudTsdT-3'; antisense 5'-ACcAUCUGGAUCUGAACGCdTsdT-3'; as printed in the source, key not given here)	10.70
XD-09242: siRNA targeting CD207 (sense 5'-caGuccGuGcuGcauuAAudTsdT-3'; antisense 5'-AUuAAUGcAGcACGGACUGdTsdT-3'; as printed in the source, key not given here)	11.05
XD-09248: siRNA targeting CD207 (sense 5'-uauucuAcAGGuGguuucudTsdT-3'; antisense 5'-AGAAACcACCUGuAGAAuAdTsdT-3'; as printed in the source, key not given here)	> 11.30
XD-09241: siRNA targeting CD207 (sense 5'-gaAAAcAcccAcAguccGudTsdT-3'; antisense 5'-ACGGACUGUGGGUGUUUUCdTsdT-3'; as printed in the source, key not given here)	9.69
XD-09240: siRNA targeting CD207 (sense 5'-guGAGcAcucAGGauGAcudTsdT-3'; antisense 5'-AGUcAUCCUGAGUGCUcACdTsdT-3'; as printed in the source, key not given here)	9.17
XD-09243: siRNA targeting CD207 (sense 5'-guccGuGcuGcAuuAAucudTsdT-3'; antisense 5'-AGAUuAAUGcAGcACGGACdTsdT-3'; as printed in the source, key not given here)	9.70
XD-09246: siRNA targeting CD207 (sense 5'-aaAuAcAAAGAuccGGGcAdTsdT-3'; antisense 5'-UGCCCGGAUCUUUGuAUUUdTsdT-3'; as printed in the source, key not given here)	10.60

What follows are substances tested on SELPLG (assay: siRNA dose response, SELPLG mRNA knockdown, bDNA Assay). Conditions: THP-1, 24 hr.
Type: cell-based, human
Experimental: as §1, §2, §3, §4

Substance	pIC50
XD-09267: siRNA targeting SELPLG (sense 5'-acuGAAGAGuGAcgGAcuudTsdT-3'; antisense 5'-AAGUCCGUcACUCUUcAGUdTsdT-3'; RNA with 2'-O-methyl and phosphorothioate modifications, case key not given here, as printed in the source, key not given here)	8.97
XD-09266: siRNA targeting SELPLG (sense 5'-aguAcuGAAGAGugAcGGAdTsdT-3'; antisense 5'-UCCGUcACUCUUcAGuACUdTsdT-3'; RNA with 2'-O-methyl and phosphorothioate modifications, case key not given here, as printed in the source, key not given here)	9.68
XD-09262: siRNA targeting SELPLG (sense 5'-ccGAAuAuGAGuAccuAGAdTsdT-3'; antisense 5'-UCuAGGuACUcAuAUUCGGdTsdT-3'; as printed in the source, key not given here)	8.87
XD-09268: siRNA targeting SELPLG (sense 5'-ccAAGGGcAGAccuuucuudTsdT-3'; antisense 5'-AAGAAAGGUCUGCCCUUGGdTsdT-3'; RNA with 2'-O-methyl and phosphorothioate modifications, case key not given here, as printed in the source, key not given here)	9.33
XD-09261: siRNA targeting SELPLG (sense 5'-ccAccGAAuAUGAguAccudTsdT-3'; antisense 5'-AGGuACUcAuAUUCGGUGGdTsdT-3'; as printed in the source, key not given here)	9.41

What follows are substances tested on SPI1 (assay: siRNA dose response, SPI1 mRNA knockdown, bDNA Assay). Conditions: THP-1, 24 hr.
Type: cell-based, human
Experimental: as §1, §2, §3, §4

Substance	pIC50
XD-09783: siRNA targeting SPI1 (sense GCGACAUGAAGGACAGCAUTT; antisense AUGCUGUCCUUCAUGUCGCTT; 2'-O-methyl and phosphorothioate modified, lower-case key not given here)	8.96
XD-09780: siRNA targeting SPI1 (sense GGAUCUAUACCAACGCCAATT; antisense UUGGCGUUGGUAUAGAUCCTT; 2'-O-methyl and phosphorothioate modified, lower-case key not given here)	8.57
XD-09789: siRNA targeting SPI1 (sense 5'-aaAGuuAuucucAauccAudTsdT-3'; antisense 5'-AUGGAUUGAGAAuAACUUUdTsdT-3'; as printed in the source, key not given here)	9.35
XD-09786: siRNA targeting SPI1 (sense UCUCAAGUCCGUAUGUAAATT; antisense UUUACAUACGGACUUGAGATT; 2'-O-methyl and phosphorothioate modified, lower-case key not given here)	9.60
XD-09781: siRNA targeting SPI1 (sense CGCCAAACGCACGAGUAUUTT; antisense AAUACUCGUGCGUUUGGCGTT; 2'-O-methyl and phosphorothioate modified, lower-case key not given here)	9.34
XD-09785: siRNA targeting SPI1 (sense GUCUCAAGUCCGUAUGUAATT; antisense UUACAUACGGACUUGAGACTT; 2'-O-methyl and phosphorothioate modified, lower-case key not given here)	9.32
XD-09787: siRNA targeting SPI1 (sense CCGUAUGUAAAUCAGAUCUTT; antisense AGAUCUGAUUUACAUACGGTT; 2'-O-methyl and phosphorothioate modified, lower-case key not given here)	10.12
XD-09788: siRNA targeting SPI1 (sense 5'-acAAGuAAAGuuAuucucAdTsdT-3'; antisense 5'-UGAGAAuAACUUuACUUGUdTsdT-3'; as printed in the source, key not given here)	8.88

The substances below were run on TNFAIP8L2 (assay: siRNA dose response, TNFAIP8L2 mRNA knockdown, bDNA Assay). Conditions: THP-1, 24 hr.
Type: cell-based, human
Experimental: as §1, §2, §3, §4

Substance	pIC50
XD-09766: siRNA targeting TNFAIP8L2 (sense 5'-cccucGAuGuAcAuAGcuudTsdT-3'; antisense 5'-AAGCuAUGuAcAUCGAGGGdTsdT-3'; RNA with 2'-O-methyl and phosphorothioate modifications, case key not given here, as printed in the source, key not given here)	9.90
XD-09765: siRNA targeting TNFAIP8L2 (sense 5'-cuGcGcGAGGcGcaAuAcAdTsdT-3'; antisense 5'-UGuAUUGCGCCUCGCGcAGdTsdT-3'; RNA with 2'-O-methyl and phosphorothioate modifications, case key not given here, as printed in the source, key not given here)	10.64
XD-09796: siRNA targeting TNFAIP8L2 (sense 5'-gcAcAuAGcAAGcuGAAcudTsdT-3'; antisense 5'-AGUUcAGCUUGCuAUGUGCdTsdT-3'; RNA with 2'-O-methyl and phosphorothioate modifications, case key not given here, as printed in the source, key not given here)	7.94
XD-09768: siRNA targeting TNFAIP8L2 (sense 5'-aaAucAAucAuGuuAcAcudTsdT-3'; antisense 5'-AGUGuAAcAUGAUUGAUUUdTsdT-3'; RNA with 2'-O-methyl and phosphorothioate modifications, case key not given here, as printed in the source, key not given here)	9.45
XD-09762: siRNA targeting TNFAIP8L2 (sense 5'-uuuAAuGuAucGcuAccAAdTsdT-3'; antisense 5'-UUGGuAGCGAuAcAUuAAAdTsdT-3'; as printed in the source, key not given here)	9.65
XD-09761: siRNA targeting TNFAIP8L2 (sense 5'-ggucAGGuGGAGAucucuudTsdT-3'; antisense 5'-AAGAGAUCUCcACCUGACCdTsdT-3'; RNA with 2'-O-methyl and phosphorothioate modifications, case key not given here, as printed in the source, key not given here)	9.15
XD-09760: siRNA targeting TNFAIP8L2 (sense 5'-ggAccAGGccGuGaucucudTsdT-3'; antisense 5'-AGAGAUcACGGCCUGGUCCdTsdT-3'; RNA with 2'-O-methyl and phosphorothioate modifications, case key not given here, as printed in the source, key not given here)	10.24
XD-09764: siRNA targeting TNFAIP8L2 (sense 5'-cguuGcGcuGGAAgGAAuudTsdT-3'; antisense 5'-AAUUCCUUCcAGCGcAACGdTsdT-3'; as printed in the source, key not given here)	8.53
